Literature values as cited in US5912253A, “Rapamycin derivatives” (Novartis AG, priority 1993, dated 1999).

Assays:
[1] = system: macrophilin-12 (FK-506 binding protein or FKBP-12)
[2] = in vivo

SMILES	binding in vivo to macrophilin-12 [1]	bioavailability [2]	solubility
C=CC[C@@H]1/C=C(\C)C[C@H](C)C[C@H](OC)[C@H]2O[C@@](O)(C(=O)C(=O)N3CCCC[C@H]3C(=O)O[C@H](/C(C)=C/[C@@H]3CC[C@@H](O)[C@H](OC)C3)[C@H](C)[C@@H](O)CC1=O)[C@H](C)C[C@@H]2OC [FK-506]	known to bind in vivo to macrophilin-12	–	–
CO[C@H]1C[C@@H]2CC[C@@H](C)[C@@](O)(O2)C(=O)C(=O)N2CCCC[C@H]2C(=O)O[C@H]([C@H](C)C[C@@H]2CC[C@@H](O)[C@H](OC)C2)CC(=O)[C@H](C)/C=C(\C)[C@@H](O)[C@@H](OC)C(=O)[C@H](C)C[C@H](C)/C=C/C=C/C=C/1C [Rapamycin, rapamycin]	known to bind in vivo to macrophilin-12	very low and variable	highly insoluble
